Data reported in patent publication US10538555B2, “Macrocyclic inhibitors of the PD-1/PD-L1 and CD80(B7-1)/PD-L1 protein/protein interactions” (BRISTOL-MYERS SQUIBB COMPANY, priority 2014, dated 2020).
Read-outs that look alike come from different tables or passages of the source. *1 amine or outer side, *2 acyl side, *3 side chain or, on linkers, in order; H or OH if unused. Where a SMILES comes first, the peptide text is derived from it. Bridges are numbered along the chain shown (N, C = ends). [ ]: non-standard residue; d: D form. Phe(3,4,5-F3) = N[C@@H](Cc1cc(F)c(F)c(F)c1)C(=O)O; Trp(7-Br) = N[C@@H](Cc1c[nH]c2c(Br)cccc12)C(=O)O; Phe(4-CH2NH2) = NCc1ccc(C[C@H](N)C(=O)O)cc1; Morpholine(3S-CO) = O=C(O)[C@@H]1COCCN1; Pro(4R-NH2) = N[C@H]1CN[C@H](C(=O)O)C1; X4 = CC1(C)CC[C@H](C(=O)[*:2])N1[*:1]; d(cisHyp) = O=C(O)[C@H]1C[C@@H](O)CN1; Bta = N[C@@H](Cc1csc2ccccc12)C(=O)O; Hyp = O=C(O)[C@@H]1C[C@@H](O)CN1; NMeF = CN[C@@H](Cc1ccccc1)C(=O)O; Pip(4-aza) = O=C(O)[C@@H]1CNCCN1; X1 = O=C([C@H]1COCCN1[*:1])[*:2]; αMeF = C[C@](N)(Cc1ccccc1)C(=O)O; NMeNle = CCCC[C@H](NC)C(=O)O; Tle = CC(C)(C)[C@H](N)C(=O)O; Pip = O=C(O)[C@@H]1CCCCN1; dPip = O=C(O)[C@H]1CCCCN1; NMeA = CN[C@@H](C)C(=O)O; Orn = NCCC[C@H](N)C(=O)O; dNMeA = CN[C@H](C)C(=O)O; Aze = O=C(O)[C@@H]1CCN1; Sar = CNCC(=O)O

Target: T1, Human PD-L1/PD-1 (Homo sapiens, UniProt Q9NZQ7)
T1 construct: TVMV protease cleavage site (C); made in house; host or cells: HEK293T cells
Assay: HTRF Human PD-L1/PD-1 binding assay (PD-1-Ig/PD-L1-His)
Details: PD-L1-His 10 nM, PD-1-Ig 20 nM
Outline: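 Truncated Fc-fused human PD-1 (aa 25-167) at 20 nM and His-tagged PD-L1 (aa 18-239) at 10 nM final are used, with peptides preincubated 15 min with PD-L1. Detection uses europium-cryptate anti-Ig and APC anti-His antibodies; 665/620 nm ratio.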

[1] = class symbol, read-out: HTRF Human PD-L1/PD-1 Binding Assay IC50 Range
[2] = read-out: HTRF Human PD-L1/PD-1 Binding Assay IC50

T1 sequence (Q9NZQ7 with tags, fused parts or gaps): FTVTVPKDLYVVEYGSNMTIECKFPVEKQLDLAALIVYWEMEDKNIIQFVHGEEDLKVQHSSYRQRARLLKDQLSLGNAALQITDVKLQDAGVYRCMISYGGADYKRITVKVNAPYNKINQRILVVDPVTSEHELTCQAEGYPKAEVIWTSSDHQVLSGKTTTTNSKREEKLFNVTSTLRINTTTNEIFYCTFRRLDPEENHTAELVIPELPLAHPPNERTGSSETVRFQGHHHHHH

| SMILES | IC50 [1] [µM] | IC50 [2] [µM] |
| --- | --- | --- |
| CCCC[C@H]1C(=O)N(C)[C@@H](CCCC)C(=O)N[C@@H](CCCNC(=N)N)C(=O)N[C@H](C(=O)NCC(N)=O)CSCC(=O)N[C@@H](Cc2ccc(O)cc2)C(=O)N2CCCC[C@H]2C(=O)N[C@@H](CCC(=O)O)C(=O)N2CCC[C@H]2C(=O)N[C@@H](Cc2c[nH]cn2)C(=O)N[C@@H](CCCN)C(=O)N2C[C@H](O)C[C@H]2C(=O)N[C@@H](Cc2c[nH]c3ccccc23)C(=O)N[C@@H](CO)C(=O)N[C@@H](Cc2c[nH]c3ccccc23)C(=O)N1C [Example 1538] ({CH2CO}-Y[Pip]EPH[Orn][Hyp]WSW[NMeNle][NMeNle]RCG-NH2; thioether N-14) | 0.01 to 0.0999 | – |
| CCCC[C@H]1C(=O)N(C)[C@@H](CCCC)C(=O)N[C@@H](C)C(=O)N[C@H](C(=O)NCC(N)=O)CSCC(=O)N[C@@H](Cc2ccc(O)cc2)C(=O)N(C)[C@@H](C)C(=O)N[C@@H](CC(N)=O)C(=O)N2CCC[C@H]2C(=O)N[C@@H](Cc2cnc[nH]2)C(=O)N[C@@H](CCC(N)=O)C(=O)N2C[C@H](O)C[C@H]2C(=O)N[C@@H](Cc2c[nH]c3ccccc23)C(=O)N[C@@H](CO)C(=O)N[C@@H](Cc2c[nH]c3c(Br)cccc23)C(=O)N1C [Example 1541] ({CH2CO}-Y[NMeA]NPHQ[Hyp]WS[Trp(7-Br)][NMeNle][NMeNle]ACG-NH2; thioether N-14) | – | 0.451 |
| CCCC[C@H]1C(=O)N(C)[C@@H](CCCC)C(=O)N[C@@H](C)C(=O)N[C@H](C(=O)NCC(N)=O)CSCC(=O)N[C@@H](Cc2ccc(O)cc2)C(=O)N(C)[C@@H](C)C(=O)N[C@@H](CC(N)=O)C(=O)N2CCC[C@H]2C(=O)N[C@@H](Cc2cnc[nH]2)C(=O)N[C@@H](CCC(N)=O)C(=O)N2C[C@H](O)C[C@H]2C(=O)N[C@@H](Cc2c[nH]c3ccccc23)C(=O)N[C@@H](CO)C(=O)N[C@@H](Cc2csc3ccccc23)C(=O)N1C [Example 1542] ({CH2CO}-Y[NMeA]NPHQ[Hyp]WS[Bta][NMeNle][NMeNle]ACG-NH2; thioether N-14) | 0.01 to 0.0999 | – |
| CCCC[C@H]1C(=O)N(C)CC(=O)N[C@@H](CC(=O)O)C(=O)N[C@@H](C(C)C)C(=O)N(C)[C@@H](Cc2ccccc2)C(=O)N[C@@H](Cc2ccc(O)cc2)C(=O)N2[C@H](CCC2(C)C)C(=O)N[C@@H](Cc2c[nH]c3ccccc23)C(=O)N[C@@H](Cc2ccc(O)cc2)C(=O)N[C@@H](CC(C)C)C(=O)N[C@H](C(=O)NCC(N)=O)CSCC(=O)N[C@@H](Cc2ccccc2)C(=O)N(C)[C@@H](Cc2ccccc2)C(=O)N1C [Example 3210] ({CH2CO}-F[NMeF][NMeNle][Sar]DV[NMeF]Y[X4]WYLCG-NH2; thioether N-13) | – | 1 |
| CCCC[C@H]1C(=O)N(C)CC(=O)N[C@@H](CC(=O)O)C(=O)N[C@@H](C(C)(C)C)C(=O)N(C)[C@@H](Cc2ccccc2)C(=O)N[C@@H](Cc2ccc(O)cc2)C(=O)N(C)CC(=O)N[C@@H](Cc2c[nH]c3ccccc23)C(=O)N[C@@H](Cc2ccc(O)cc2)C(=O)N[C@@H](CC(C)C)C(=O)N[C@H](C(=O)NCC(N)=O)CSCC(=O)N[C@@H](Cc2ccccc2)C(=O)N(C)[C@@H](Cc2ccccc2)C(=O)N1C [Example 3211] ({CH2CO}-F[NMeF][NMeNle][Sar]D[Tle][NMeF]Y[Sar]WYLCG-NH2; thioether N-13) | 0.01 to 0.0999 | – |
| CCCC[C@H]1C(=O)N(C)CC(=O)N[C@@H](CC(N)=O)C(=O)N[C@@H](C(C)C)C(=O)N(C)[C@@H](Cc2ccccc2)C(=O)N[C@@H](CC(=O)O)C(=O)N(C)CC(=O)N[C@@H](Cc2c[nH]c3ccccc23)C(=O)N[C@@H](Cc2ccc(CN)cc2)C(=O)N[C@@H](CC(C)C)C(=O)N[C@H](C(=O)NCC(N)=O)CSCC(=O)N[C@@H](Cc2ccccc2)C(=O)N(C)[C@@H](Cc2ccccc2)C(=O)N1C [Example 3212] ({CH2CO}-F[NMeF][NMeNle][Sar]NV[NMeF]D[Sar]W[Phe(4-CH2NH2)]LCG-NH2; thioether N-13) | 0.01 to 0.0999 | – |
| CCCC[C@H]1C(=O)N2C[C@H](O)C[C@@H]2C(=O)N2C[C@H](N)C[C@H]2C(=O)N[C@@H](C(C)C)C(=O)N(C)[C@@H](Cc2ccccc2)C(=O)N[C@@H](CCC(=O)O)C(=O)N2CCOC[C@@H]2C(=O)N[C@@H](Cc2c[nH]c3ccccc23)C(=O)N[C@@H](Cc2ccc(O)cc2)C(=O)N[C@@H](CC(C)C)C(=O)N[C@H](C(=O)NCC(N)=O)CSCC(=O)N[C@@H](Cc2cc(F)c(F)c(F)c2)C(=O)N(C)[C@@H](Cc2ccccc2)C(=O)N1C [Example 3216] ({CH2CO}-[Phe(3,4,5-F3)][NMeF][NMeNle][d(cisHyp)][Pro(4R-NH2)]V[NMeF]E[X1]WYLCG-NH2; thioether N-13) | 0.01 to 0.0999 | – |
| CCCC[C@H]1C(=O)N2CCC[C@@H]2C(=O)N2CCCC[C@H]2C(=O)N[C@@H](C(C)C)C(=O)N(C)[C@@H](Cc2ccccc2)C(=O)N[C@@H](Cc2ccc(O)cc2)C(=O)N2CCCC[C@@H]2C(=O)N[C@@H](Cc2c[nH]c3ccccc23)C(=O)N[C@@H](Cc2ccc(O)cc2)C(=O)N[C@@H](CC(C)C)C(=O)N[C@H](C(=O)NCC(N)=O)CSCC(=O)N[C@@H](Cc2cc(F)c(F)c(F)c2)C(=O)N(C)[C@@H](Cc2ccccc2)C(=O)N1C [Example 3217] ({CH2CO}-[Phe(3,4,5-F3)][NMeF][NMeNle][dP][Pip]V[NMeF]Y[dPip]WYLCG-NH2; thioether N-13) | 0.01 to 0.0999 | – |
| CCCC[C@H]1C(=O)N2CCC[C@@H]2C(=O)N2CCNC[C@H]2C(=O)N[C@@H](C(C)C)C(=O)N(C)[C@@H](Cc2ccccc2)C(=O)N[C@@H](Cc2ccc(O)cc2)C(=O)N2CCCC[C@@H]2C(=O)N[C@@H](Cc2c[nH]c3ccccc23)C(=O)N[C@@H](Cc2ccc(O)cc2)C(=O)N[C@@H](CC(C)C)C(=O)N[C@H](C(=O)NCC(N)=O)CSCC(=O)N[C@@H](Cc2cc(F)c(F)c(F)c2)C(=O)N(C)[C@@H](Cc2ccccc2)C(=O)N1C [Example 3218] ({CH2CO}-[Phe(3,4,5-F3)][NMeF][NMeNle][dP][Pip(4-aza)]V[NMeF]Y[dPip]WYLCG-NH2; thioether N-13) | 0.001 to 0.0099 | – |
| CCCC[C@H]1C(=O)N2CCC[C@@H]2C(=O)N2CCOC[C@H]2C(=O)N[C@@H](C(C)C)C(=O)N(C)[C@@H](Cc2ccccc2)C(=O)N[C@@H](Cc2ccc(O)cc2)C(=O)N2CCCC[C@@H]2C(=O)N[C@@H](Cc2c[nH]c3ccccc23)C(=O)N[C@@H](Cc2ccc(O)cc2)C(=O)N[C@@H](CC(C)C)C(=O)N[C@H](C(=O)NCC(N)=O)CSCC(=O)N[C@@H](Cc2cc(F)c(F)c(F)c2)C(=O)N(C)[C@@H](Cc2ccccc2)C(=O)N1C [Example 3219] ({CH2CO}-[Phe(3,4,5-F3)][NMeF][NMeNle][dP][Morpholine(3S-CO)]V[NMeF]Y[dPip]WYLCG-NH2; thioether N-13) | 0.01 to 0.0999 | – |
| CCCC[C@H]1C(=O)N2CCC[C@@H]2C(=O)N[C@@H](CC(=O)O)C(=O)N[C@@H](C(C)C)C(=O)N[C@@](C)(Cc2ccccc2)C(=O)N[C@@H](Cc2ccc(O)cc2)C(=O)N2CCCC[C@@H]2C(=O)N[C@@H](Cc2c[nH]c3ccccc23)C(=O)N[C@@H](Cc2ccc(O)cc2)C(=O)N[C@@H](CC(C)C)C(=O)N[C@H](C(=O)NCC(N)=O)CSCC(=O)N[C@@H](Cc2ccccc2)C(=O)N(C)[C@@H](Cc2ccccc2)C(=O)N1C [Example 3220] ({CH2CO}-F[NMeF][NMeNle][dP]DV[αMeF]Y[dPip]WYLCG-NH2; thioether N-13) | 0.01 to 0.0999 | – |
| CCCC[C@H]1C(=O)N2CCC[C@@H]2C(=O)N2CC[C@H]2C(=O)N[C@@H](C(C)C)C(=O)N(C)[C@@H](Cc2ccccc2)C(=O)N[C@@H](Cc2ccc(O)cc2)C(=O)N2CCCC[C@@H]2C(=O)N[C@@H](Cc2c[nH]c3ccccc23)C(=O)N[C@@H](Cc2ccc(O)cc2)C(=O)N[C@@H](CC(C)C)C(=O)N[C@H](C(=O)NCC(N)=O)CSCC(=O)N[C@@H](Cc2cc(F)c(F)c(F)c2)C(=O)N(C)[C@@H](Cc2ccccc2)C(=O)N1C [Example 3221] ({CH2CO}-[Phe(3,4,5-F3)][NMeF][NMeNle][dP][Aze]V[NMeF]Y[dPip]WYLCG-NH2; thioether N-13) | 0.01 to 0.0999 | – |
| CCCC[C@H]1C(=O)N2CCC[C@@H]2C(=O)N[C@@H](CC(=O)O)C(=O)N[C@@H](C(C)(C)C)C(=O)N(C)[C@@H](Cc2ccccc2)C(=O)N[C@@H](Cc2ccc(O)cc2)C(=O)N2CCCC[C@@H]2C(=O)N[C@@H](Cc2c[nH]c3ccccc23)C(=O)N[C@@H](Cc2ccc(O)cc2)C(=O)N[C@@H](CC(C)C)C(=O)N[C@H](C(=O)NCC(N)=O)CSCC(=O)N[C@@H](Cc2cc(F)c(F)c(F)c2)C(=O)N(C)[C@@H](Cc2ccccc2)C(=O)N1C [Example 3222] ({CH2CO}-[Phe(3,4,5-F3)][NMeF][NMeNle][dP]D[Tle][NMeF]Y[dPip]WYLCG-NH2; thioether N-13) | – | 0.0045 |
| CCCC[C@H]1C(=O)N2CCC[C@@H]2C(=O)N[C@@H](CC(=O)O)C(=O)N[C@@H](C(C)(C)C)C(=O)N(C)[C@@H](Cc2ccccc2)C(=O)N[C@@H](Cc2ccc(O)cc2)C(=O)N2CCOC[C@@H]2C(=O)N[C@@H](Cc2c[nH]c3ccccc23)C(=O)N[C@@H](Cc2ccc(O)cc2)C(=O)N[C@@H](CC(C)C)C(=O)N[C@H](C(=O)NCC(N)=O)CSCC(=O)N[C@@H](Cc2cc(F)c(F)c(F)c2)C(=O)N(C)[C@@H](Cc2ccccc2)C(=O)N1C [Example 3223] ({CH2CO}-[Phe(3,4,5-F3)][NMeF][NMeNle][dP]D[Tle][NMeF]Y[X1]WYLCG-NH2; thioether N-13) | 0.001 to 0.0099 | – |
| CCCC[C@H]1C(=O)N(C)[C@H](C)C(=O)N[C@@H](CC(=O)O)C(=O)N[C@@H](C(C)C)C(=O)N(C)[C@@H](Cc2ccccc2)C(=O)N[C@@H](Cc2ccc(O)cc2)C(=O)N(C)[C@H](C)C(=O)N[C@@H](Cc2c[nH]c3ccccc23)C(=O)N[C@@H](Cc2ccc(O)cc2)C(=O)N[C@@H](CC(C)C)C(=O)N[C@H](C(=O)NCC(N)=O)CSCC(=O)N[C@@H](Cc2cc(F)c(F)c(F)c2)C(=O)N(C)[C@@H](Cc2ccccc2)C(=O)N1C [Example 3224] ({CH2CO}-[Phe(3,4,5-F3)][NMeF][NMeNle][dNMeA]DV[NMeF]Y[dNMeA]WYLCG-NH2; thioether N-13) | 0.01 to 0.0999 | – |
